The source of these data is patent publication US8703975B2, “Aryl (ethanoic) propanoic acid ascorbyl ester, preparation method thereof and medicament containing the same” (Wuxi Hongrui Bio-Pharma-Tech Co., Ltd., priority 2009, dated 2014).

A short description of data set [1]: Solubility in solvents and water. The format is physicochemical.
Data set [2] has as its system Arteriovenous Loop Thrombus. Kind of data set: Arteriovenous loop thrombus in rats, thrombus wet weight and inhibition rate. The format is in vivo. The note with it: 5.4 mg·kg^−1 by gavage for 3 days. Here is the method:
Normal rats, half male and half female, were randomly grouped according to table 1. The administration group was given water solution of Sodium Salt L-ascorbic acid-6-O—(S)-ibuprofen ester (pH 7.4) by gavage and the control group was given equivalent pH normal saline for continuous 3 days. The rat was intraperitoneally injected with 350 mg of 8% chloral hydrate per kg for anesthesia 1 h after the last administration, and then fixed in the supine position to separate the right common carotid artery and the left external jugular vein. An early weighed No. 7 operation line (about 8 cm long) was placed in the middle of a 10 cm long polyethylene tube, and then the tube was filled with normal saline and both ends of the tube were connected with an intubation filled with heparin (about 3 cm long), in which one end was inserted into the jugular vein, and the other end was inserted into the common carotid artery. After opening the artery clip, the in vitro loop flow was formed. The blood flow was interrupted after 15 min followed by quickly taking the thrombus and weighing. […]
Statistical analysis: the experimental data was represented as x±s, and the significance of the differences was determined with one-factor analysis of variance. t represented t-test results between the control group and the Sodium Salt L-ascorbic acid-6-O—(S)-ibuprofen ester.

Molecules are shown by their SMILES.

In the case of `CC(C)Cc1ccc([C@H](C)C(=O)OC[C@H](O)[C@H]2OC(=O)C(O)=C2O)cc1` [Embodiment 1, L-Ascorbic Acid-6-O—(S)-Ibuprofen Ester], the Solubility entry in data set [1] (in chloroform) is on record as “insoluble”; in data set [1] (in cyclohexane) it was “insoluble”; in data set [1] (in ethanol), “soluble”; in data set [1] (in methanol), “soluble”; in data set [1] (in propylene glycol), “soluble”; in data set [1] (in water), “insoluble”.
As to `CC(C)Cc1ccc([C@H](C)C(=O)OC[C@H](O)[C@H]2OC(=O)C(O)=C2[O-])cc1.[Na+]` [Sodium Salt L-Ascorbic Acid-6-O—(S)-Ibuprofen Ester], the “thrombus wet weight/body weight × 100” value in data set [2] (1 h after last administration, 15 min loop flow, x±s) amounted to 10.372 ± 0.801. Moreover, in data set [2] (versus control group), the Thrombus inhibition rate was determined as 12.9%. The molecule also returned a solubility in water in data set [1] (water) of 12.8 g.
